In PubChem BioAssay (NCI) one finds TGI and GI50 data, which are given here for ten compounds.

Each structure is given as a SMILES string. Values joined by “and” are separate entries in the source; they are usually repeats but may differ in a detail not shown here. Equal entries are not always repeated.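 These data come from cells grown in 96-well plates and exposed to compound for 48 hours at five concentrations. GI50: concentration for 50% inhibition of growth. The concentration for full growth arrest is given as TGI.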

Test systems include COLO 205 colon; HCC-2998 colon; NCI-H460 lung; RPMI-8226 leukemia; SNB-75 CNS; UACC-62 melanoma; EKVX NSCLC; KM12 colon; SK-MEL-5 melanoma; M14 melanoma.
Holding throughout (assay): growth of human tumour cells (NCI), 48 h

For `O=CN/C=C/c1cccc(O)c1`, the TGI in the test with COLO 205 colon was > 100 µM; with HCC-2998 colon it was > 100 µM; with NCI-H460 lung, 77.6 µM; with RPMI-8226 leukemia, > 100 µM; with SNB-75 CNS it was > 92.5 µM; with UACC-62 melanoma, 63.3 µM. Besides, the TGI with EKVX NSCLC is > 96.6 µM; with KM12 colon it was > 100 µM; in the test with SK-MEL-5 melanoma it was > 75.6 µM; in the test with M14 melanoma, > 88.2 µM.
Consider `Cc1cc2c(C)nn(Cc3ccccc3)c2c(C(N)=O)c1C`, for which the TGI was > 100 µM in the test on COLO 205 colon; > 100 µM in the test with HCC-2998 colon; > 100 µM in the test on NCI-H460 lung; > 100 µM with RPMI-8226 leukemia; 58.8 µM in the test on SNB-75 CNS; > 100 µM with UACC-62 melanoma. Also, the TGI in the test with EKVX NSCLC, in the test with KM12 colon, in the test with SK-MEL-5 melanoma and with M14 melanoma was > 100 µM in each case.
With `O=c1cc(-c2ccccc2F)[nH]c2ccc(N3CCCC3)cc12`, the GI50 in the test with COLO 205 colon is < 0.001 µM; in the test on HCC-2998 colon, 0.0204 µM; in the test with NCI-H460 lung, < 0.001 µM; with RPMI-8226 leukemia, < 0.001 µM; in the test on UACC-62 melanoma, < 0.001 µM; with EKVX NSCLC it was > 100 µM. Besides, the GI50 in the test on KM12 colon, with SK-MEL-5 melanoma and with M14 melanoma was < 0.001 µM in each case. Further, the TGI in the test with HCC-2998 colon was 0.455 µM and 0.0546 µM; in the test with SNB-75 CNS it was > 100 µM; in the test on UACC-62 melanoma, > 100 µM; in the test with M14 melanoma it was > 100 µM.
Turning to `O=C1Nc2nc3ccccc3n2N=C2CCCC12` (stereo unspecified), the TGI in the test with COLO 205 colon, with HCC-2998 colon, in the test on NCI-H460 lung, in the test with RPMI-8226 leukemia, with SNB-75 CNS and with UACC-62 melanoma was > 100 µM throughout. The TGI in the test on EKVX NSCLC, in the test on KM12 colon, in the test on SK-MEL-5 melanoma and in the test with M14 melanoma was > 100 µM each time.
`COc1c(O)cc2oc(-c3ccc(O)cc3)cc(=O)c2c1O`: the TGI is > 100 µM in the test with COLO 205 colon; 80.3 µM in the test on HCC-2998 colon; > 100 µM in the test on NCI-H460 lung; > 100 µM in the test on RPMI-8226 leukemia; 58.2 µM in the test on SNB-75 CNS; 68.1 µM in the test on UACC-62 melanoma. Besides, the TGI in the test on EKVX NSCLC was 98.1 µM; with KM12 colon, > 100 µM; with SK-MEL-5 melanoma it was 63.7 µM; in the test on M14 melanoma, > 100 µM.
Turning to `COc1cc(NC(C)CCCN)c2ncccc2c1` (stereo unspecified), the TGI in the test on COLO 205 colon was 41.2 µM and 64 µM; with HCC-2998 colon it was 31.6 µM and 58.5 µM; with NCI-H460 lung, > 100 µM; in the test on RPMI-8226 leukemia, > 100 µM; in the test on SNB-75 CNS, > 100 µM and 80.5 µM; in the test on UACC-62 melanoma, 51.9 µM and > 89.5 µM. Besides, the TGI was > 100 µM with EKVX NSCLC; > 100 µM in the test on KM12 colon; 32.3 µM and 57.3 µM with SK-MEL-5 melanoma; 34.5 µM and > 73.6 µM in the test on M14 melanoma. Besides, the GI50 with NCI-H460 lung is 32.8 µM and > 94.8 µM; in the test on UACC-62 melanoma it was 20.3 µM and 45.3 µM; with M14 melanoma it was 16.8 µM and 43.1 µM.
For `CC(=O)OC[C@]12CC[C@@H](C(=O)CBr)[C@@H]1[C@H]1CC[C@@H]3[C@@]4(C)CCCNC(C)(C)[C@@H]4CC[C@@]3(C)[C@]1(C)CC2`, the GI50 with COLO 205 colon is 3.92 µM; in the test with HCC-2998 colon, 11.5 µM; in the test with NCI-H460 lung, 7.66 µM; with RPMI-8226 leukemia it was 2.36 µM; in the test on SNB-75 CNS, 15.4 µM; with UACC-62 melanoma, 2.11 µM. Moreover, the GI50 with EKVX NSCLC was 12.5 µM; with KM12 colon it was 11.8 µM; in the test on SK-MEL-5 melanoma it was 4.55 µM; in the test with M14 melanoma it was 2.38 µM. Moreover, the TGI in the test with COLO 205 colon worked out at 17.2 µM; with HCC-2998 colon it was 26.1 µM; in the test on NCI-H460 lung, 21.8 µM; in the test on RPMI-8226 leukemia, 6.69 µM; in the test on SNB-75 CNS it was 32.8 µM; in the test with UACC-62 melanoma, 4.71 µM. For the same compound, the TGI in the test on EKVX NSCLC came to 25.2 µM; in the test on KM12 colon, 27.3 µM; in the test with SK-MEL-5 melanoma it was 15.8 µM; in the test with M14 melanoma, 6.66 µM.
As for `NC(=O)c1ccc(I)c(N=O)c1`, the GI50 was 21.7 µM in the test on COLO 205 colon; 67.5 µM in the test with HCC-2998 colon; 62.6 µM with NCI-H460 lung; 36.9 µM with RPMI-8226 leukemia; 19.9 µM with SNB-75 CNS; 40.5 µM with UACC-62 melanoma. Also, the GI50 with EKVX NSCLC is 81.1 µM; in the test with KM12 colon, 40.7 µM; in the test with SK-MEL-5 melanoma it was 34.2 µM; in the test with M14 melanoma, 30.5 µM. Besides, the TGI in the test with COLO 205 colon was 44.3 µM; in the test with HCC-2998 colon, > 100 µM; in the test on NCI-H460 lung it was > 100 µM; in the test on RPMI-8226 leukemia, 88.7 µM; with SNB-75 CNS, 69.4 µM; in the test on UACC-62 melanoma it was > 100 µM. The TGI with EKVX NSCLC is > 100 µM; in the test on KM12 colon it was > 100 µM; in the test with SK-MEL-5 melanoma it was > 100 µM; with M14 melanoma it was 83.1 µM.
Take `Cc1ccc(C(CC(=O)c2ccccc2)C2C(=O)NC(=O)NC2=O)cc1` (stereo unspecified): the GI50 with COLO 205 colon, with HCC-2998 colon, in the test on NCI-H460 lung, with RPMI-8226 leukemia, in the test on SNB-75 CNS and in the test on UACC-62 melanoma was > 100 µM each time. Further, the GI50 in the test on EKVX NSCLC, in the test with KM12 colon, with SK-MEL-5 melanoma and in the test with M14 melanoma was > 100 µM each time. Further, the TGI in the test with COLO 205 colon, in the test with HCC-2998 colon, in the test on NCI-H460 lung, in the test with RPMI-8226 leukemia, in the test with SNB-75 CNS and in the test with UACC-62 melanoma was > 100 µM in each case. Besides, the TGI in the test on EKVX NSCLC, with KM12 colon, in the test on SK-MEL-5 melanoma and with M14 melanoma was > 100 µM in each case.
For `N.N.N.N.N.[Cl-].[Co+3].c1ccc(-c2nn[n-]n2)cc1`, the GI50 with COLO 205 colon, in the test with HCC-2998 colon, with NCI-H460 lung, with RPMI-8226 leukemia, in the test with SNB-75 CNS and with UACC-62 melanoma was > 100 µM in each case. The GI50 in the test with EKVX NSCLC, in the test with KM12 colon, in the test on SK-MEL-5 melanoma and in the test on M14 melanoma was > 100 µM throughout. For the same compound, the TGI in the test on COLO 205 colon, in the test with HCC-2998 colon, in the test with NCI-H460 lung, in the test with RPMI-8226 leukemia, in the test on SNB-75 CNS and in the test on UACC-62 melanoma was > 100 µM in each case. Further, the TGI in the test on EKVX NSCLC, in the test on KM12 colon, with SK-MEL-5 melanoma and in the test with M14 melanoma was > 100 µM each time.
